What was measured:
[1] = tested on: patients with Severe Refractory Chronic Hand Eczema (CHE); test: Clinical trial simulation (longitudinal dose response model): PGA score at end of treatment; type: in vivo, human; details: 30 mg
Method: (§1) In clinical studies, efficacy was measured using PGA score and modified total lesion signs and symptoms (mTLSS) at various times during and post treatment. PGA scores over time were chosen for this analysis because PGA scores were the primary endpoint in the Phase III studies and were collected at more time points than the mTLSS. The PGA was graded according to 5 point scale (clear, almost clear, mild disease, moderate disease, severe disease). The mTLSS severity score was graded 0 to 3 for 7 parameters.
For the Physician Global Assessment (PGA), a general description of CHE severity, which is a well recognized scale is shown below in Table 7 for clarification purposes.

[2] = tested on: patients with Severe Refractory Chronic Hand Eczema (CHE); test: Clinical trial simulation (longitudinal dose response model): time from initial dose to onset of effect; type: in vivo, human; details: for Time to Onset of Effect (a Drop of 2 or More Points in PGA in 30% of Subjects): 30 mg
Method: In reviewing the data to make these determinations, all available PGA scores observed (not including scores derived from missing data such as last observation carried forward (LOCF) including those at baseline, every 4 weeks during treatment, and every 4 to 8 weeks after cessation of treatment for up to 72 weeks post treatment from the various clinical trials were used to develop a longitudinal dose response model.
as §1
A >2 weeks time to onset is considered clinically relevant.

CC1=C(/C=C/C(C)=C\C=C\C(C)=C\C(=O)O)C(C)(C)CCC1 [Alitretinoin, 9-cis isomer of retinoic acid (RA)]
Proportion of Responders (PGA = 1 or 2) at End of Treatment ([1]; age 30 yr): 33.9 (26, 42) %
Proportion of Subjects (PGA = 2) at End of Treatment ([1]; age 30 yr): 22.9 (16, 30) %
Proportion of Subjects (PGA = 3) at End of Treatment ([1]; age 30 yr): 28.4 (21, 36) %
Proportion of Responders (PGA = 1 or 2) at End of Treatment ([1]; age 50 yr): 41.1 (33, 49) %
Proportion of Subjects (PGA = 1) at End of Treatment ([1]; age 50 yr): 14.9 (9, 21) %
Proportion of Subjects (PGA = 2) at End of Treatment ([1]; age 50 yr): 26.3 (20, 34) %
Proportion of Subjects (PGA = 3) at End of Treatment ([1]; age 50 yr): 28.3 (20, 35) %
Proportion of Responders (PGA = 1 or 2) at End of Treatment ([1]; age 65 yr): 48.0 (40, 56) %
Proportion of Subjects (PGA = 1) at End of Treatment ([1]; age 65 yr): 19.3 (13, 26) %
Proportion of Subjects (PGA = 2) at End of Treatment ([1]; age 65 yr): 28.7 (22, 36) %
Proportion of Subjects (PGA = 3) at End of Treatment ([1]; age 65 yr): 27.1 (19, 35) %
Proportion of Responders (PGA = 1 or 2) at End of Treatment ([1]; age 75 yr): 53.0 (45, 62) %
Proportion of Subjects (PGA = 1) at End of Treatment ([1]; age 75 yr): 22.8 (16, 30) %
Proportion of Subjects (PGA = 2) at End of Treatment ([1]; age 75 yr): 30.2 (23, 37) %
Proportion of Subjects (PGA = 3) at End of Treatment ([1]; age 75 yr): 25.8 (18, 33) %
Proportion of Responders (PGA = 1 or 2) at End of Treatment ([1]; duration of treatment 4 weeks): 4.3 (1, 8) %
Proportion of Subjects (PGA = 1) at End of Treatment ([1]; duration of treatment 4 weeks): 1.3 (1, 2) %
Proportion of Subjects (PGA = 2) at End of Treatment ([1]; duration of treatment 4 weeks): 3.7 (1, 7) %
Proportion of Subjects (PGA = 3) at End of Treatment ([1]; duration of treatment 4 weeks): 10.5 (5, 16) %
Proportion of Responders (PGA = 1 or 2) at End of Treatment ([1]; duration of treatment 8 weeks): 15.2 (10, 21) %
Proportion of Subjects (PGA = 1) at End of Treatment ([1]; duration of treatment 8 weeks): 3.6 (1, 7) %
Proportion of Subjects (PGA = 2) at End of Treatment ([1]; duration of treatment 8 weeks): 11.7 (7, 17) %
Proportion of Subjects (PGA = 3) at End of Treatment ([1]; duration of treatment 8 weeks): 22.5 (16, 29) %
Proportion of Responders (PGA = 1 or 2) at End of Treatment ([1]; duration of treatment 12 weeks): 23.7 (16, 31) %
Proportion of Subjects (PGA = 1) at End of Treatment ([1]; duration of treatment 12 weeks): 6.6 (3, 11) %
Proportion of Subjects (PGA = 2) at End of Treatment ([1]; duration of treatment 12 weeks): 17.1 (11, 24) %
Proportion of Subjects (PGA = 3) at End of Treatment ([1]; duration of treatment 12 weeks): 26.4 (19, 34) %
Proportion of Responders (PGA = 1 or 2) at End of Treatment ([1]; duration of treatment 16 weeks): 30.2 (23, 38) %
Proportion of Subjects (PGA = 1) at End of Treatment ([1]; duration of treatment 16 weeks): 9.2 (5, 14) %
Proportion of Subjects (PGA = 2) at End of Treatment ([1]; duration of treatment 16 weeks): 21.0 (14, 28) %
Proportion of Subjects (PGA = 3) at End of Treatment ([1]; duration of treatment 16 weeks): 27.7 (21, 35) %
Proportion of Responders (PGA = 1 or 2) at End of Treatment ([1]; duration of treatment 20 weeks): 35.4 (28, 43) %
Proportion of Subjects (PGA = 1) at End of Treatment ([1]; duration of treatment 20 weeks): 11.9 (7, 17) %
Proportion of Subjects (PGA = 2) at End of Treatment ([1]; duration of treatment 20 weeks): 23.6 (17, 31) %
Proportion of Subjects (PGA = 3) at End of Treatment ([1]; duration of treatment 20 weeks): 28.0 (21, 35) %
Proportion of Responders (PGA = 1 or 2) at End of Treatment ([1]; duration of treatment 24 weeks): 40.4 (33, 48) %
Proportion of Subjects (PGA = 1) at End of Treatment ([1]; duration of treatment 24 weeks): 14.7 (9, 21) %
Proportion of Subjects (PGA = 2) at End of Treatment ([1]; duration of treatment 24 weeks): 25.7 (19, 33) %
Proportion of Subjects (PGA = 3) at End of Treatment ([1]; duration of treatment 24 weeks): 28.2 (21, 35) %
faster time to onset of effect ([2]; 65 or 75 year old compared with a 30 year old): > 2 weeks
Time to Onset of Effect (a Drop of 2 or More Points in PGA in 30% of Subjects) ([2]; age 30 yr): 58 (49, 70) Days
Time to Onset of Effect (a Drop of 2 or More Points in PGA in 30% of Subjects) ([2]; age 50 yr): 49 (42, 56) Days
Time to Onset of Effect (a Drop of 2 or More Points in PGA in 30% of Subjects) ([2]; age 65 yr): 43 (35, 49) Days

From patent publication US20150202172A1, “NOVEL METHOD OF USE” (Glaxo Group Limited, priority 2014, published 2015)
